Values after ≈ are worked out from the molar mass of the structure shown.
Assays:
Lethal factor = molecular target: T1, Lethal factor (Bacillus anthracis, UniProt P15917)
T1 sequence (P15917 whole entry): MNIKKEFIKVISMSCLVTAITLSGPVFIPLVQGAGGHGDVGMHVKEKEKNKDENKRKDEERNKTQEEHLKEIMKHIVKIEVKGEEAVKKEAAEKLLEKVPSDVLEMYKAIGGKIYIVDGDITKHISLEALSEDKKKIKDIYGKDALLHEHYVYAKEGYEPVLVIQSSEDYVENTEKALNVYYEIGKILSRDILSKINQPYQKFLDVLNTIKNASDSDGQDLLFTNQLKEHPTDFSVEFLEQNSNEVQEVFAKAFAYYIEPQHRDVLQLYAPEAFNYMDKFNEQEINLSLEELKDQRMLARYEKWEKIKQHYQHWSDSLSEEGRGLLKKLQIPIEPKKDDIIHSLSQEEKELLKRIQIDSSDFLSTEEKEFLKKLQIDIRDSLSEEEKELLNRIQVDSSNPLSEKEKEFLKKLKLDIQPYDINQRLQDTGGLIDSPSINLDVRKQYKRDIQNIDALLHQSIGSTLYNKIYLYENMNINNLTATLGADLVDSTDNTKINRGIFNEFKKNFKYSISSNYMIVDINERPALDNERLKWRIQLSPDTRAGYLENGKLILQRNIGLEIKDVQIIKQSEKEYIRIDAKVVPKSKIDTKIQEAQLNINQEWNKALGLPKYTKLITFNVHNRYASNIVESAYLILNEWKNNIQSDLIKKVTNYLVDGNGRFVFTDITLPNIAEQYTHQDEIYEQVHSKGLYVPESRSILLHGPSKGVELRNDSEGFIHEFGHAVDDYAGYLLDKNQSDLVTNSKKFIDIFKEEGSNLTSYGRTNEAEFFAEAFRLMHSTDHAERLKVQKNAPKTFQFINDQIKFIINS

Neprilysin = Neprilysin (Homo sapiens, UniProt P08473); test: Inhibition of NEP
Interstitial collagenase = molecular target: T2, Interstitial collagenase (Homo sapiens, UniProt P03956); test: Inhibition of MMP1
T2 sequence (P03956 whole entry): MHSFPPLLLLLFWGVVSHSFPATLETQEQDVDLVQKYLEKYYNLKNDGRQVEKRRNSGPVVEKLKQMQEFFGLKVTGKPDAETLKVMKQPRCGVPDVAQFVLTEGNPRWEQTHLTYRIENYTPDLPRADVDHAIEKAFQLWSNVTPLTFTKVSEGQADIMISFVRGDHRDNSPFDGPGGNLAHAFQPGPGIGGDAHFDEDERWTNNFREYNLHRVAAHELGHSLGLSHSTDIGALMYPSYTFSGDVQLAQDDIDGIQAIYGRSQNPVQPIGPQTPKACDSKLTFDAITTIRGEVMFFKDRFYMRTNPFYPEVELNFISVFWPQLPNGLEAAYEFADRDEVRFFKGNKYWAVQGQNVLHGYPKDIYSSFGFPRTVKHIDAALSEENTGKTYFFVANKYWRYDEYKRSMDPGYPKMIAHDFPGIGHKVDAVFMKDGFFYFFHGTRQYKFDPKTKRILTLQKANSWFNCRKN

[1] = molecular target: 72 kDa type IV collagenase (Homo sapiens, UniProt P08253); test: Inhibition of MMP2
Stromelysin-1 = Stromelysin-1 (Homo sapiens, UniProt P08254); test: Inhibition of MMP3
[2] = Solubility in water; assay type: physicochemical
[3] = Clearance in BALB/c mice at 10 mg/kg, iv; assay type: ADME, organism-based; parameters: dose 10 mg/kg, route intravenous; conditions: mouse, in vivo
[4] = Cmax in BALB/c mice at 10 mg/kg, iv; assay type: ADME, organism-based; parameters: dose 10 mg/kg, route intravenous; conditions: mouse, in vivo
[5] = Tmax in BALB/c mice at 10 mg/kg, iv; assay type: ADME, organism-based; parameters: dose 10 mg/kg, route intravenous; conditions: mouse, in vivo
[6] = Bioavailability in BALB/c mice […], po; assay type: ADME, organism-based; conditions: mouse, in vivo
[7] = Volume of distribution in Sprague-Dawley rat at 1 mg/kg, iv; assay type: ADME, organism-based; parameters: dose 1 mg/kg, route intravenous; conditions: in vivo, read-out: Vdss
[8] = Half life in Sprague-Dawley rat at 1 mg/kg, iv; assay type: ADME, organism-based; parameters: dose 1 mg/kg, route intravenous; conditions: in vivo
[9] = Half life in rhesus monkey at 1 mg/kg, iv; assay type: ADME, organism-based, Macaca mulatta; parameters: dose 1 mg/kg, route intravenous; conditions: in vivo
[10] = Cmax in rhesus monkey at 1 mg/kg, iv; assay type: ADME, organism-based, Macaca mulatta; parameters: dose 1 mg/kg, route intravenous; conditions: in vivo
[11] = Tmax in rhesus monkey at 1 mg/kg, iv; assay type: ADME, organism-based, Macaca mulatta; parameters: dose 1 mg/kg, route intravenous; conditions: in vivo
[12] = Cmax in Sprague-Dawley rat at 1 mg/kg, iv; assay type: ADME, organism-based; parameters: dose 1 mg/kg, route intravenous; conditions: in vivo
[13] = Bioavailability in Sprague-Dawley rat […], po; assay type: ADME, organism-based; conditions: in vivo
[14] = Clearance in Guinea pig at 2 mg/kg, iv; assay type: ADME, organism-based, Cavia porcellus; parameters: dose 2 mg/kg, route intravenous; conditions: in vivo
[15] = Cmax in Guinea pig at 2 mg/kg, iv; assay type: ADME, organism-based, Cavia porcellus; parameters: dose 2 mg/kg, route intravenous; conditions: in vivo
[16] = Bioavailability in Guinea pig at 1 mg/ml, po; assay type: ADME, organism-based, Cavia porcellus; conditions: in vivo
[17] = Clearance in Dutch Belted rabbit at 2 mg/kg, iv; assay type: ADME, organism-based, Oryctolagus cuniculus; parameters: dose 2 mg/kg, route intravenous; conditions: in vivo
[18] = Volume of distribution in Dutch Belted rabbit at 2 mg/kg, iv; assay type: ADME, organism-based, Oryctolagus cuniculus; parameters: dose 2 mg/kg, route intravenous; conditions: in vivo, read-out: Vdss
[19] = Half life in Dutch Belted rabbit at 2 mg/kg, iv; assay type: ADME, organism-based, Oryctolagus cuniculus; parameters: dose 2 mg/kg, route intravenous; conditions: in vivo
[20] = Cmax in Dutch Belted rabbit at 2 mg/kg, iv; assay type: ADME, organism-based, Oryctolagus cuniculus; parameters: dose 2 mg/kg, route intravenous; conditions: in vivo
[21] = Tmax in Dutch Belted rabbit at 2 mg/kg, iv; assay type: ADME, organism-based, Oryctolagus cuniculus; parameters: dose 2 mg/kg, route intravenous; conditions: in vivo
[22] = Half life in New Zealand White rabbit at 5 mg/kg, iv; assay type: ADME, organism-based, Oryctolagus cuniculus; parameters: dose 5 mg/kg, route intravenous; conditions: in vivo
[23] = Clearance in Beagle dog at 1 mg/kg, iv; assay type: ADME, organism-based, Canis lupus familiaris; parameters: dose 1 mg/kg, route intravenous; conditions: in vivo
[24] = Half life in Beagle dog at 1 mg/kg, iv; assay type: ADME, organism-based, Canis lupus familiaris; parameters: dose 1 mg/kg, route intravenous; conditions: in vivo
[25] = Cmax in Beagle dog at 1 mg/kg, iv; assay type: ADME, organism-based, Canis lupus familiaris; parameters: dose 1 mg/kg, route intravenous; conditions: in vivo
[26] = Tmax in Beagle dog at 1 mg/kg, iv; assay type: ADME, organism-based, Canis lupus familiaris; parameters: dose 1 mg/kg, route intravenous; conditions: in vivo
[27] = Clearance in rhesus monkey at 1 mg/kg, iv; assay type: ADME, organism-based, Macaca mulatta; parameters: dose 1 mg/kg, route intravenous; conditions: in vivo
[28] = Volume of distribution in rhesus monkey at 1 mg/kg, iv; assay type: ADME, organism-based, Macaca mulatta; parameters: dose 1 mg/kg, route intravenous; conditions: in vivo, read-out: Vdss

Sequence of 72 kDa type IV collagenase (P08253 whole entry): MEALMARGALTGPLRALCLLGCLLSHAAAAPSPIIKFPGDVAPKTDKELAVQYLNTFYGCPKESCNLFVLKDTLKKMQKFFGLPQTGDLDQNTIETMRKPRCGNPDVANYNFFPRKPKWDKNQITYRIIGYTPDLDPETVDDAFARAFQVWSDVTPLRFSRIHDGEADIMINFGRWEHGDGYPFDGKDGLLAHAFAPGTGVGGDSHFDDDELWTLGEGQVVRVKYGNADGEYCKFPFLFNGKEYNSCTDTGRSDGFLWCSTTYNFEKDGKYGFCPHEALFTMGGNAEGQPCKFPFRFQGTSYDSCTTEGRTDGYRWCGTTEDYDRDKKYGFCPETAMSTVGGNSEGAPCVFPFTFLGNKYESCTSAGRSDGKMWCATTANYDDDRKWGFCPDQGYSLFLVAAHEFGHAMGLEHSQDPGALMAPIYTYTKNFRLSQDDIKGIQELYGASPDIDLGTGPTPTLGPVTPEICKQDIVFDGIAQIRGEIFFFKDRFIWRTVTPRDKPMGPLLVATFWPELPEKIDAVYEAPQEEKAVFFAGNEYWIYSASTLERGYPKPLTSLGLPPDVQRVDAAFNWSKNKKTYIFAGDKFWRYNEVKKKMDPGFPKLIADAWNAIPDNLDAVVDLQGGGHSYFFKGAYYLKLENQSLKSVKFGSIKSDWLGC
Sequence of Neprilysin (P08473 whole entry): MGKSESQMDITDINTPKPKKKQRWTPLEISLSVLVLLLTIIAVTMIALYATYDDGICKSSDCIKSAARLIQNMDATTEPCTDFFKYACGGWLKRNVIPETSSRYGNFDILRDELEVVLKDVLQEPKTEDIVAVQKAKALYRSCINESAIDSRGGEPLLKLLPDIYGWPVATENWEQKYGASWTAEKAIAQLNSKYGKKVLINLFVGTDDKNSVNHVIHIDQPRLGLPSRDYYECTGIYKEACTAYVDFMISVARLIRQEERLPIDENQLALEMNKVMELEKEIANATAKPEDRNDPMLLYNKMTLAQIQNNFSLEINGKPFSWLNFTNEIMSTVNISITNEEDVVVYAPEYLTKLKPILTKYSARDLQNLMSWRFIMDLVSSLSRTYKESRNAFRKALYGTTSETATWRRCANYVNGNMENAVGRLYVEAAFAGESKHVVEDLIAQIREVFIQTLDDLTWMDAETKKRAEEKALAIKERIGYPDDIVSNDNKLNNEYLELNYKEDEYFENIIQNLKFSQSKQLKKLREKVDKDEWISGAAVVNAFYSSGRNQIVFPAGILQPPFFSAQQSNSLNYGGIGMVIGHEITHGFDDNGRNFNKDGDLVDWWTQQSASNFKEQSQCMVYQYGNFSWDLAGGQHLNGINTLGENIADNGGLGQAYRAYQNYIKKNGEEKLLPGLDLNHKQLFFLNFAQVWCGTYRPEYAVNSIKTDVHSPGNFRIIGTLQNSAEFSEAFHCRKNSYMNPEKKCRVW
Sequence of Stromelysin-1 (P08254 whole entry): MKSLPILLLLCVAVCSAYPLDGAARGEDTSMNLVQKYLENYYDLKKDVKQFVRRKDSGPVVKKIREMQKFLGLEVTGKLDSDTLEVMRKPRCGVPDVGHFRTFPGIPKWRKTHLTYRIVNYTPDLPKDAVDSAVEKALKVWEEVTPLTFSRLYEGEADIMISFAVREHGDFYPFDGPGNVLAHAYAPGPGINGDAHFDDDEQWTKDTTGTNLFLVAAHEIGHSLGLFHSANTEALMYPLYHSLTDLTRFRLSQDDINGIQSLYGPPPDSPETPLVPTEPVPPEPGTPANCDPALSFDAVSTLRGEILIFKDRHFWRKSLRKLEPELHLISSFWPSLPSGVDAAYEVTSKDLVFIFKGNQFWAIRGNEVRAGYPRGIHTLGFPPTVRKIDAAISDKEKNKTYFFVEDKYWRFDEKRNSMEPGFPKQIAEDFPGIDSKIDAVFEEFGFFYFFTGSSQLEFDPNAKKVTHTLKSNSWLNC

Cc1cc(S(=O)(=O)N[C@@H](C(=O)NO)C2CCOCC2)ccc1F
IC50 (Lethal factor): 54 nM
IC50 (Neprilysin): 9400 nM
IC50 (Interstitial collagenase): 2200 nM
IC50 [1]: 2000 nM
IC50 (Stromelysin-1): 1400 nM
solubility [2]: 2500 µg/mL (≈ 7.22 mM)
clearance [3]: 72 mL/min/kg
Cmax [4]: 120 nM
Tmax [5]: 0.3 h
bioavailability [6]: 20%
Vd [7]: 3.9 L/kg
half-life [8]: 1.4 h
half-life [9]: 2.4 h
Cmax [10]: 120 nM
Tmax [11]: 1.3 h
Cmax [12]: 240 nM
bioavailability [13]: 51%
clearance [14]: 24 mL/min/kg
Cmax [15]: 250 nM
bioavailability [16]: 22%
clearance [17]: 14 mL/min/kg
Vd [18]: 1.5 L/kg
half-life [19]: 2 h
Cmax [20]: 12 nM
Tmax [21]: 0.3 h
half-life [22]: 2.5 h
clearance [23]: 15 mL/min/kg
half-life [24]: 4.7 h
Cmax [25]: 730 nM
Tmax [26]: 0.8 h
clearance [27]: 23 mL/min/kg
Vd [28]: 3.3 L/kg
